Assay results from patent US8481524B2, “c-MET protein kinase inhibitors” (Vertex Pharmaceuticals Incorporated, priority 2007, dated 2013).

System: c-Met in Snu5 gastric carcinoma cells
Experiment: Inhibition of c-Met activity in Snu5 gastric carcinoma cells (Snu5-AP1-Luc-Pest luciferase signal)
Format: cell-based, human
Conditions: for IC50: Homo sapiens, SNU-5, Snu5-AP1-Luc-Pest cells, 6 hours, Steady Glo luminescence; for activity compared with corresponding analog wherein R5 is hydrogen: Snu5 gastric carcinoma cell assay, comparison of IC50 values
Text: Compounds of the invention were also screened for their ability to inhibit the Luciferase-induced signal in an engineered Snu5 cell line. Snu5 [obtained from American Type Culture Collection (Catalog number CRL-5973)] is a human gastric carcinoma known to overexpress c-Met, which is constitutively active. The cell line was transduced with the retrovirus, pCLPCX, which contains a genetic construct consisting of 6×AP1 promoter response elements and a luciferase gene having a C-terminal PEST sequence (proteolytic signal from mouse ornithine decarboxylase, which reduces the half-life of the luciferase). The constitutively active cMet activates cellular pathways (principally MAP kinase), resulting in AP-1-induced transcription of luciferase-PEST and translation into the final product, the activity of which is quantifiable as a chemiluminescent readout upon the addition of luciferin (Steady-Glo from Promega.). Residual luminescence is strongly correlated to the inhibition of c-Met. A stable cell line was obtained by selecting the new cell line (Snu5-AP1-Luc-Pest) with puromycin. The cells were grown in complete media [Iscove's media (Invitrogen) containing 10% fetal bovine serum (FBS, Hyclone) and penicillin/gentamycin (Invitrogen)]. Compounds of the invention were dissolved in DMSO to make 10 mM initial stock solutions. Serial dilutions in DMSO were then made and transferred to complete medium to make a 10× solution. The Snu5-AP1-Luc-Pest cells were counted and diluted to 200,000-cells/mL solution. The cells (90 μL) were added to each well in a 96-well black with clear bottom plate (Costar). Then 10 μL of the 10× compound solution was added to the cells in triplicate. The plates were incubated in a 37° C./5% CO2 incubator. After 6 hours, 50 μL of the Steady Glo reagent (Promega) was added to each well and placed on a plate shaker for 5 minutes to ensure that the cells were completely lysed. The plate was read on a 1450 Microbeta Liquid Scintillation and Luminescence Counter (Perkin-Elmer). The IC50s were calculated using a 4-parameter fit using the graphing software Prism (GraphPad).

IC50	SMILES	activity compared with corresponding analog wherein R5 is hydrogen
≤ 100 nM	COc1ccc(-n2nnnc2-c2cc(-c3cc4c(s3)CCNCC4(C)C)cnc2N)c(F)c1F [Compound 29]	more active
≤ 100 nM	CCCOc1ccc(-n2nnnc2-c2cc(-c3cnn(C4CCNCC4)c3)cnc2N)c(F)c1F [Compound 34]	
≤ 100 nM	COc1ccc(-n2nnnc2-c2cc(-c3cnn([C@H]4CCNC4)c3)cnc2N)c(F)c1F [Compound 6]	more active
100 to 1000 nM	Cc1ccc(-n2nnnc2-c2cc(-c3cnn([C@@H]4CCNC4)c3)cnc2N)c(F)c1F [Compound 1]	more active
